The results in this text go back to article PMC10146558, “Highly Cytotoxic Copper(II) Mixed-Ligand Quinolinonato Complexes: Pharmacokinetic Properties and Interactions with Drug Metabolizing Cytochromes P450” (Pharmaceutics, 2023).

The target of one series is T1, human bactosomes CYP2A6 (Homo sapiens, UniProt P11509).
T1 construct: purchased BD Biosciences (Franklin Lakes, NJ, USA); host or cells: bacterial membranes ('bactosomes')
T1 sequence (P11509 1-494): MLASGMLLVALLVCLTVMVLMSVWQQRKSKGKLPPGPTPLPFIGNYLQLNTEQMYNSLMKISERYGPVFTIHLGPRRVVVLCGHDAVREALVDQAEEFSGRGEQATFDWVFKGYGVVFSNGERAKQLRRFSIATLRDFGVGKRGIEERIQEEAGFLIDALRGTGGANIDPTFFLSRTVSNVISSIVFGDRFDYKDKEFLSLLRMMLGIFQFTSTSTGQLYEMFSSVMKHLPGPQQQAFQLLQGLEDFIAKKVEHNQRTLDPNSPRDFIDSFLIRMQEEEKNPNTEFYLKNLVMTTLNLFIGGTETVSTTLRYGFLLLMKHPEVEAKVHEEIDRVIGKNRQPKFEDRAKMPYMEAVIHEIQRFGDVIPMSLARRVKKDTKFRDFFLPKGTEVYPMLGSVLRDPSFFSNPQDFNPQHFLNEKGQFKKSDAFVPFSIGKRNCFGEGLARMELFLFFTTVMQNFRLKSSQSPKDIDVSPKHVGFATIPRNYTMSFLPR
Nature of the series: Isothermal titration calorimetry, bactosomes CYP2A6. The class given is binding. The following applies: 25 °C; for n, CYP2A6B: ITC stoichiometry, pH 7.4; for Ka, CYP2A6B / ΔG, CYP2A6B / ΔH, CYP2A6B / ΔS, CYP2A6B / Kd: ITC, pH 7.4, 1% DMSO; for Kd: read-out: Kd, CYP2A6B. Here is the method: (§1) The interactions of the compounds with selected forms of cytochrome P450, i.e., human bactosomes CYP1A2, CYP2A6, CYP3A4, and recombinant human CYP3A4, were studied using isothermal titration calorimetry (ITC). ITC experiments were performed at 25 °C with a Nano ITC Low Volume (TA Instruments, New Castle, DE, USA). During all measurements, 20 injections of 16µM of the studied compound (2.5 µL each) were titrated into 250 µL of protein (2 µM) with time intervals of 300 s and a stirring speed of 250 rpm. All ITC experiments were conducted with degassed buffered solutions (100 mM phosphate buffer, pH 7.4) in the presence of 1% DMSO. Control experiments included the titration of each complex solution into a buffer. The corrected data refer to experimental data after subtraction of the buffer control data from the compounds data. The resulting thermograms were analysed using the “Independent” model within the NanoAnalyze software (TA Instruments, New Castle, DE, USA).
(In ITC the heat of successive injections is recorded.)

For another series, the target named is T2, human bactosomes CYP3A4 (Homo sapiens, UniProt P08684).
T2 construct: purchased Cypex (Dundee, UK); host or cells: bacterial membranes ('bactosomes')
Nature of the series: Isothermal titration calorimetry, bactosomes CYP3A4. Type of series: binding. The following applies: 25 °C; for n, CYP3A4B: ITC stoichiometry, pH 7.4; for Ka, CYP3A4B / ΔG, CYP3A4B / ΔH, CYP3A4B / ΔS, CYP3A4B / Kd: ITC, pH 7.4, 1% DMSO; for Kd: read-out: Kd, CYP3A4B. Here is the method: as §1

In another series the target is T3, human bactosomes CYP1A2 (Homo sapiens, UniProt P05177).
T3 construct: purchased BD Biosciences (Franklin Lakes, NJ, USA); host or cells: bacterial membranes ('bactosomes')
T3 sequence (P05177 1-516): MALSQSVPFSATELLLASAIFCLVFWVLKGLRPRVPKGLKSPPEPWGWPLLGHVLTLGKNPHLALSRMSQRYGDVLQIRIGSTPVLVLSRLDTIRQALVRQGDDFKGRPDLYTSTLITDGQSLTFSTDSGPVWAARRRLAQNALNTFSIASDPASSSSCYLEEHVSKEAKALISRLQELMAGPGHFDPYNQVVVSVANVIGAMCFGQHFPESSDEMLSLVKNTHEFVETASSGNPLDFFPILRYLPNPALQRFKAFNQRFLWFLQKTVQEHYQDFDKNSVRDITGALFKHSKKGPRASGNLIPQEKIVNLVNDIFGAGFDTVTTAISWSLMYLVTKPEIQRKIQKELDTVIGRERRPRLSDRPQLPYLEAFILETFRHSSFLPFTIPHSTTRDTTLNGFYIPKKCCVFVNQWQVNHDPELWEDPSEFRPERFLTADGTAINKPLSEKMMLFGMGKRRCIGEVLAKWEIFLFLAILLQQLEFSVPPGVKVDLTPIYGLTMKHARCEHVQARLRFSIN
Kind of series: Isothermal titration calorimetry, bactosomes CYP1A2. Type of series: binding. The following applies: 25 °C, 100 mM phosphate buffer pH 7.4, 1% DMSO. Here is the method: as §1

In a further series the target is T4, CYP2C9 (Homo sapiens, UniProt P11712).
T4 construct: Cryopreserved pooled human liver microsomes were obtained from Xenotech; tissue Xenotech (Lenexa, KS, USA); host or cells: pooled human liver microsomes
Kind of series: CYP2C9 activity (diclofenac 4′-hydroxylation) in human liver microsomes. Type of series: biochemical. The following applies: for Type of inhibition, CYP2C9 / Ki: Dixon and Lineweaver–Burk plots; for Ki: substrate ½ Km to 4 Km; for IC50: human liver microsomes, diclofenac 4′-hydroxylation.

In series [1] the test system is human liver microsomal cytochrome P450s. The conditions noted are these: pH 7.4.
Description: (§2) The cuvette contained microsomes diluted to final concentration of CYP 1 µM in 50 mM potassium phosphate buffer (pH 7.4). The tested compounds were dissolved in the same buffer, and their concentrations in the experiments ranged from 0.002 to 33.310 µM. The UV-Visible spectra were recorded at room temperature by repetitive scanning between 300 and 700 nm using Varian 500 UV/VIS spectrophotometer (Agilent Technologies, Wakefield, MA, USA). Changes of absorbance in the range of the Soret’s region (380–450 nm) were plotted against the concentration of the studied compounds. Data were analysed using GraphPad Prism 6 software (La Jolla, CA, USA).
Series [2] is described as follows: Chemical stability (stability in PBS). The class given is physicochemical. The conditions noted are these: 1 × PBS pH 7.4, 37 °C, 7.4 µM. Here is the method: Pharmacological properties of the complexes 1 and 2, including stability in plasma, microsomal stability, binding to plasma proteins, and permeability through an artificial membrane, were tested under in vitro conditions and according to methods described in previous reports. Analysis of the samples was performed using Agilent RapidFire 300 High-Throughput Mass Spectrometry System (Agilent Technologies, Wakefield, MA, USA) with subsequent detection using the mass spectrometer Qtrap 5500 (AB Sciex, Concord, Toronto, ON, Canada), abbreviation RF-MS. The samples were aspirated directly from the plates into a 10 μL sample loop and passed through a C4 cartridge with solvent A (5% acetonitrile, 95% water, 0.1% formic acid) at a flow rate of 1.5 mL/min for 3 s. After the desalting step, analytes retained on the cartridge were eluted with solvent B (95% acetonitrile, 5% water, 0.1% formic acid) in the mass spectrometer at a flow rate of 0.4 mL/min for 5 s. The mass spectrometry of the samples was carried out using electrospray ionisation in the positive ion mode. Daughter ion peaks were identified using a multiple-reaction monitoring protocol.
The reaction was terminated by ice-cold methanol (chemical stability) or acetonitrile:methanol (2:1), and samples were left at −80 °C overnight (plasma stability). The solution was mixed and centrifuged (4000 rpm, 9 min, 4 °C). After lyophilization of supernatant, samples were dissolved in mobile phase with internal standard and analysed by RF/MS analysis.

Another series deals with CYP3A4 (Homo sapiens, UniProt P08684). Kind of series: CYP3A4 activity (midazolam 1′-hydroxylation) in human liver microsomes. The conditions noted are these: read-out: IC50 CYP3A4 (midazolam 1′-hydroxylation assay); human liver microsomes.
In series [3] the test system is human liver microsomal cytochrome P450s. Kind of series: Difference spectra (UV-visible spectral titration) with human liver microsomes. The conditions noted are these: read-out: Ks (spectral binding constant); spectral differences at 386 nm, CYP 1 µM, pH 7.4, room temperature. (Microsomes from liver hold many membrane-bound enzymes, among them those of drug oxidation.)
Description: as §2

Read-outs that look alike come from different tables or passages of the source.

T4 sequence (P11712 whole entry): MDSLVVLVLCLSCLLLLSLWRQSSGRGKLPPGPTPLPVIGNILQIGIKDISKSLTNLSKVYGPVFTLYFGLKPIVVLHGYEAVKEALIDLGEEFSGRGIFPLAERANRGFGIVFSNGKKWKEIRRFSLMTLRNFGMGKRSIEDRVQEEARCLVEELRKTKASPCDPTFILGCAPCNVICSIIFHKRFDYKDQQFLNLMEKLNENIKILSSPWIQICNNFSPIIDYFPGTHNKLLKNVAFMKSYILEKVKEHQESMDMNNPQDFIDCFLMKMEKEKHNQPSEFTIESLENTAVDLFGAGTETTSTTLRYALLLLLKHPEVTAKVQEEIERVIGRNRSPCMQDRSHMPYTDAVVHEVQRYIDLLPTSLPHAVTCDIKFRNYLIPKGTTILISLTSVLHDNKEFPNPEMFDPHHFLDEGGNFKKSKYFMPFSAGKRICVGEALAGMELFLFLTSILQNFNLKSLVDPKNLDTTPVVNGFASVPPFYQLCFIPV
T2 sequence (P08684 whole entry): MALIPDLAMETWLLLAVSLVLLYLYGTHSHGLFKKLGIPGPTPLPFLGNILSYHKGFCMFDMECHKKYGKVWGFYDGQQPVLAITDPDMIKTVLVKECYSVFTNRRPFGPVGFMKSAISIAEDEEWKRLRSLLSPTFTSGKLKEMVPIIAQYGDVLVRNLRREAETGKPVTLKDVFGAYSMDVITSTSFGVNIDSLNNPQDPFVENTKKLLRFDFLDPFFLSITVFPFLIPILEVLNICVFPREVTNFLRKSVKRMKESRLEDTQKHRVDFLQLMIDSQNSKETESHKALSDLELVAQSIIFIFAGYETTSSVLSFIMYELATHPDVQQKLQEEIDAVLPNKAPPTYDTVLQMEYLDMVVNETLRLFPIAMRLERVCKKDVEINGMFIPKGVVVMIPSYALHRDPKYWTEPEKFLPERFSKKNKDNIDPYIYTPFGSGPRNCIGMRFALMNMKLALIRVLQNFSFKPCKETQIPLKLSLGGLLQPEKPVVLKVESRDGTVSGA
Chain of CYP3A4 (P08684 2-503): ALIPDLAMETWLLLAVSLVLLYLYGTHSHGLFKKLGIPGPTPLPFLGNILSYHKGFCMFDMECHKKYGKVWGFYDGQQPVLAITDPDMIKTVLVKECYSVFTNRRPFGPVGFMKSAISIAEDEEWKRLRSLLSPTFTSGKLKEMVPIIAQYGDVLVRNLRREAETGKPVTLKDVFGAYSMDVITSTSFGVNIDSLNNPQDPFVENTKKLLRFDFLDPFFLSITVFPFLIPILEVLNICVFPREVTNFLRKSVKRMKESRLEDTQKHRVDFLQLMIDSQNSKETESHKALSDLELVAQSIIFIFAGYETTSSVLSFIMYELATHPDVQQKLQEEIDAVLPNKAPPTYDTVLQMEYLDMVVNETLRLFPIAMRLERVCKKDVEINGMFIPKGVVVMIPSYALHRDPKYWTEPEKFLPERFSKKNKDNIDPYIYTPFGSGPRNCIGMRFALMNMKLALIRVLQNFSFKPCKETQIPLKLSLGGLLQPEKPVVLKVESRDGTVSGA
Description for CYP2C9: For each enzyme assay, the preliminary experiments to determine Michaelis constant (Km) and limiting velocity (Vmax) were performed to calculate the time of incubation (the specified time for which the reaction is still linear) and the values of substrate concentration (in the range corresponding to the value of Km).
The reaction mixtures were buffered by 0.1 M potassium phosphate buffer (pH 7.4) and contained a NADPH-generating system consisting of the isocitrate dehydrogenase (6 U/mL), NADP^+ (0.5 mM), isocitric acid (4 mM), and MgSO4 (5 mM). The final concentration levels of complexes were obtained by diluting a 10 mM solution with dimethyl sulfoxide (DMSO). It is known that DMSO can in some cases inhibit P450; the following measures were thus applied: (a) control samples containing organic solvent without the tested compounds were prepared and used as references; (b) DMSO levels were maintained below 0.1% to minimise the inhibition. Inhibition experiments were performed using five concentration levels of the tested compounds in the range of 10–100 µM. The maximum concentration was chosen so that in the case of inhibition, it would be possible to determine the inhibitory effect of the complexes and characterise them by determining the IC50 value. Additionally, an inhibitor-free control was used as a reference. Incubations were executed in two independent batches, and the samples were prepared and measured in triplicate at 37 °C. Analyses of the metabolites formed from the specific substrates were performed by HPLC using the Prominence system (Shimadzu, Kyoto, Japan) equipped with a LiChroCART 250-4 LiChrospher 100 RP-18 column, Chromolith® HighResolution RP-18 end-capped column (Merck, Darmstadt, Germany), or Kinetex Biphenyl column (Phenomenex, Torrace, CA, USA).
The apparent Ki values were determined by additional measurements using substrate concentrations corresponding to 1/2 Km, Km, 2 Km, and 4 Km in the case of inhibition. The type of model was selected on the basis of the Lineweaver–Burk and Dixon plots. The values of IC50 were obtained by analysing the plot of the percentage of activity remaining after inhibition versus the logarithm of the inhibitor concentration using the GraphPad Prism 6 software (La Jolla, CA, USA).

For the compound `Cc1cc2cccnc2c2ncccc12.O.O=[N+]([O-])[O-].O=c1c([O-])c(-c2ccccc2)[nH]c2ccccc12.[Cu+2]` [complex 1], on human bactosomes CYP2A6, the “n, CYP2A6B” value is recorded as 0.801; the “Ka, CYP2A6B” value came out at 1.04e+06 M⁻¹; the “ΔG, CYP2A6B” value is −40,050.9 J/mol; the “ΔH, CYP2A6B” value was -7.603 kcal/mol. Also, on human bactosomes CYP2A6, the “ΔS, CYP2A6B” value amounted to 27.64 J/mol.K and the Kd was 0.962 µM. In addition, at human bactosomes CYP3A4, the “n, CYP3A4B” value is 0.911; the “Ka, CYP3A4B” value came to 1.92e+07 M⁻¹; the “ΔG, CYP3A4B” value was −41,558.7 J/mol; the “ΔH, CYP3A4B” value was -19.13 kcal/mol. Further, on human bactosomes CYP3A4, the “ΔS, CYP3A4B” value was −129 J/mol.K and the Kd was 0.0521 µM. Moreover, the “ITC interaction with CYP1A2B” value on human bactosomes CYP1A2 is on record as “no interaction”. In addition, at CYP2C9, the “Type of inhibition, CYP2C9” value was “non-competitive”; the Ki worked out at 2.56 ± 0.37 µM; the IC50 turned out to be 16.3 µM. The compound also yielded a Kd in series [1] of 7.59 ± 1.8 µM. In series [2], the “% Compound Remaining, Chemical Stability, 15 min” value is recorded as 99.6 ± 3.6%; the “% Compound Remaining, Chemical Stability, 30 min” value worked out at 99.9 ± 1.5%; the “% Compound Remaining, Chemical Stability, 60 min” value is 97.8 ± 3.4%; the “% Compound Remaining, Chemical Stability, 120 min” value was 96.6 ± 3.4%. The IC50 at CYP3A4 stood at 28.8 ± 2.55 µM.
For `Cc1cc2cccnc2c2ncccc12.F[B-](F)(F)F.O.O=c1c([O-])c(-c2ccccc2)[nH]c2ccccc12.[Cu+2]` [complex 2], at human bactosomes CYP2A6, the “n, CYP2A6B” value was found to be 1.071; the “Ka, CYP2A6B” value was determined as 3.12e+06 M⁻¹; the “ΔG, CYP2A6B” value is −37,070.9 J/mol; the “ΔH, CYP2A6B” value is -5.507 kcal/mol. On human bactosomes CYP2A6, the “ΔS, CYP2A6B” value was found to be 47.06 J/mol.K and the Kd came to 0.321 µM. At human bactosomes CYP3A4, the “n, CYP3A4B” value is 0.859; the “Ka, CYP3A4B” value is 2.17e+07 M⁻¹; the “ΔG, CYP3A4B” value is −41,881.2 J/mol; the “ΔH, CYP3A4B” value was -14.99 kcal/mol. Moreover, on human bactosomes CYP3A4, the “ΔS, CYP3A4B” value is given as −69.86 J/mol.K and the Kd turned out to be 0.0461 µM. Also, the “ITC interaction with CYP1A2B” value at human bactosomes CYP1A2 is listed as “no interaction”. Moreover, on CYP2C9, the “Type of inhibition, CYP2C9” value is “fully non-competitive”; the Ki stood at 0.92 ± 0.25 µM; the midpoint of inhibition, the IC50, lay at 37.2 µM. The “CYP2C9 activity remaining, % of the control” value at CYP2C9 (at 100 μM) is recorded as 7%. The Kd in series [3] worked out at 8.56 ± 1 µM. In addition, in series [2], the “% Compound Remaining, Chemical Stability, 15 min” value turned out to be 99.6 ± 3.0%; the “% Compound Remaining, Chemical Stability, 30 min” value turned out to be 96.8 ± 2.4%; the “% Compound Remaining, Chemical Stability, 60 min” value was found to be 94.0 ± 3.3%; the “% Compound Remaining, Chemical Stability, 120 min” value worked out at 96.6 ± 2.4%. Moreover, on CYP3A4, the IC50 stood at 33 ± 1.13 µM.

Broadly, the Ki is the equilibrium dissociation constant of an inhibitor or competing ligand from its target. Lower therefore signals higher affinity. As a reminder, the IC50 is the point on the concentration scale where inhibition reaches its midpoint.
